Data published in patent publication US20250136584A1, “Benzimidazole Or Azabenzimidazole Compound, Preparation Method Therefor And Use Thereof” (Chengdu Di'Ao Jiuhong Pharmaceutical Factory, priority 2022, published 2025).
pEC50: −log10 of the molar value.

Key:
GLP1R = GLP1R (Homo sapiens, UniProt P43220); assay: Agonist activity on GLP1R/CRE-LUC HEK293 cells (luciferase reporter, ONE-Glo); assay type: cell-based; conditions: for pEC50: GLP1R/CRE-LUC HEK293 cells, 6 hours incubation, chemiluminescence signal; for activity compared with comparative example compounds PF-06882961, DB02, DB03 and DB06: from Table 1, also much higher than DB04 and DB05
Chain of GLP1R (P43220 24-463): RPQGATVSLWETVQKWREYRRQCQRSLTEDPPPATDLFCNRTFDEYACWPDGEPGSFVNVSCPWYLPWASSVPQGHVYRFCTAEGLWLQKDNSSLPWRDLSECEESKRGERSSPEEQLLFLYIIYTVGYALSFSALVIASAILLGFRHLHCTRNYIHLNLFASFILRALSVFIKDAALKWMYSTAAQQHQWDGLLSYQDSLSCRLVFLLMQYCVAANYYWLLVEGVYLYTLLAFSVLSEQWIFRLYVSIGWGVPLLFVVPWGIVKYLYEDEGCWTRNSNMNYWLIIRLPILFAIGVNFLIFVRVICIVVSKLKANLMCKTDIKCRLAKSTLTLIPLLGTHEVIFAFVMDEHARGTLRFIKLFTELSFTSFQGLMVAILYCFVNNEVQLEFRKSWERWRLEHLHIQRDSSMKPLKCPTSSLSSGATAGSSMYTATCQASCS
Description: Logarithmically growing GLP1R/CRE-LUC HEK293 cells (purchased from Nanjing Cobioer) were digested, the digested cells were re-suspended in a DMEM+10% FBS culture medium, and a cell density was adjusted to be 3.5*10^5/mL. The cell solution was added into a 96-well cell culture plate by 100 µL/well, and the plate was cultured overnight in an incubator (37° C., 5% CO2).
A compound was dissolved with DMSO to prepare a storage solution at an initial concentration of 10 mM, an initial concentration of the small molecular compound was 0.2 mM, and the compound was diluted by 3 times and 10 points were diluted, while the 11th point was DMSO. Another 96-well plate was taken, added with 95 μL of cell culture solution (DMEM+10% FBS) in each well, then added with 5 μL of to-be-tested samples at different concentrations in each well, mixed evenly, and then added with 11 μL of to-be-tested samples at different concentrations in each well of the cell culture plate, and each sample had two wells. The culture plate was incubated in an incubator for 6 hours (37° C., […]). The 96-well cell culture plate was taken out, added with 100 μL of ONE-Glo™ reagent in each well, and incubated at room temperature for 10 minutes, and a chemiluminescence signal value was measured with an enzyme-labeled instrument. Data were processed and analyzed by Microsoft Excel and Graphpad Prism6 to obtain an EC50 value of the compound.

hERG potassium channel = biological target: T1, hERG potassium channel (Homo sapiens, UniProt Q12809); assay: hERG test, patch clamp on HEK-293 cells stably expressing hERG potassium channel; assay type: cell-based; conditions: HEK-293 cell line stably expressing hERG, read-out: IC50 (μM) of inhibitory effect on hERG potassium channel current
T1 construct: host or cells: HEK-293 stably expressing hERG
T1 sequence (Q12809 whole entry): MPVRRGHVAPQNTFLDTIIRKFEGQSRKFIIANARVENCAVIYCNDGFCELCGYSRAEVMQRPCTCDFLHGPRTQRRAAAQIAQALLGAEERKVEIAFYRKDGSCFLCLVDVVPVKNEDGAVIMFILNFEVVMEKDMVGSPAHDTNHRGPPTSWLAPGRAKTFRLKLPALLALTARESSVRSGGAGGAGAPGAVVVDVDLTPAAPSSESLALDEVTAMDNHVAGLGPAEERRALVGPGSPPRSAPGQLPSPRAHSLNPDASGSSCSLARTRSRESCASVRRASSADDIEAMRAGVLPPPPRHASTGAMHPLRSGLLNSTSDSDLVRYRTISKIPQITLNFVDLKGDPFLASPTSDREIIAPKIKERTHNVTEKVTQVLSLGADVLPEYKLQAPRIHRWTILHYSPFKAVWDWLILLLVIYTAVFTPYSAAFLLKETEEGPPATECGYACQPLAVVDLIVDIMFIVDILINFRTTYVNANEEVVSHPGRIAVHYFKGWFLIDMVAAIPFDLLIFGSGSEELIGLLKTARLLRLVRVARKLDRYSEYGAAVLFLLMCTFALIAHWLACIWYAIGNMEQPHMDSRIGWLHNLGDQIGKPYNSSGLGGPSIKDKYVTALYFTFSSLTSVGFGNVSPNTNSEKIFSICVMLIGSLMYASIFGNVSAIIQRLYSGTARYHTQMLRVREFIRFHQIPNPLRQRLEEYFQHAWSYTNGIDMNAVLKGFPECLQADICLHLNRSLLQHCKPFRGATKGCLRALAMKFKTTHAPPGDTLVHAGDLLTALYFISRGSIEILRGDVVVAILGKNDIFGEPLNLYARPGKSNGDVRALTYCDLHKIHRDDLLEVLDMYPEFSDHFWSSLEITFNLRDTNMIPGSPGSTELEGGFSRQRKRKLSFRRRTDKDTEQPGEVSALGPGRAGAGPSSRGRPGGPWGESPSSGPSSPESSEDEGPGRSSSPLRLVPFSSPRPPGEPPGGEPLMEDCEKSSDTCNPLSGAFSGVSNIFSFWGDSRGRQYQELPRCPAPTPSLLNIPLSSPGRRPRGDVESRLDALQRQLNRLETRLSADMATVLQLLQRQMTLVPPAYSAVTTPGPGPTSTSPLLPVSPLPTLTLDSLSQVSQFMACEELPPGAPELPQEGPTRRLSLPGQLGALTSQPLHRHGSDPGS
Description: Test object: influences of compounds on an hERG potassium channel current were tested by a full-automatic patch clamp method.
• (1) An HEK-293 cell line stably expressing an hERG potassium channel was adopted, and hERG potassium channel cells were purchased from Creacell Company. • (2) The HEK-293 cell line stably expressing the hERG potassium channel was cultured in a DMEM culture medium containing 10% fetal bovine serum and 0.8 mg/mL G418 at 37° C. under a carbon dioxide concentration of 5%. • (3) Cell passage: the old culture medium was removed, and the cells were washed once with PBS, then added with 1 mL of TrypLE™ Express solution, and incubated at 37° C. for about 0.5 minutes. When the cells were separated from a dish bottom, about 5 mL of complete culture medium preheated at 37° C. was added. A cell suspension was gently blown with a straw to separate the aggregated cells. The cell suspension was transferred to a sterile centrifuge tube and centrifuged at 1000 rpm for 5 minutes to collect the cells. In amplification or maintenance of culture, the cells were inoculated into a 6 cm cell culture dish, and the number of cells inoculated into each cell culture dish was 2.5×10^5 cells (final volume: 5 mL). In order to maintain an electrophysiological activity of cells, a cell density should not exceed 80%. • (4) In patch clamp detection, before the test, the cells were separated by TrypLE™ Express, and 4×10^3 cells were spread on a cover slip and cultured in a 24-well plate (final volume: 500 μL). After 18 hours, the test was carried out for detection. Data analysis:
A current after an effect of each drug concentration and a blank control current
were standardized first, and then an inhibition rate
corresponding to each drug concentration was calculated. A mean number and a standard error were calculated for each concentration, and a semi-inhibitory concentration of each compound was calculated by the following equation: […]
A dosage-dependent effect was nonlinearly fitted by the above equation, wherein C represented a concentration of a test sample, IC50 represented a semi-inhibitory concentration, and h represented a Hill coefficient. Curve fitting and IC50 calculation were completed by IGOR software.

hGLP1R mice = assay: Glucose tolerance test in hGLP1R mice after single oral administration; assay type: in vivo; conditions: 1 mg/kg oral once; for onset of blood glucose reduction compared with comparative example compound DB05 / blood glucose reduction effect compared with comparative example compound DB05: FIG. 1 and FIG. 2; for blood glucose reduction effect compared with PF-06882961: glucose 2 g/kg i.p. 60 minutes later; for blood glucose reduction effect compared with PF-06882961 / blood glucose reduction effect compared with comparative example compound DB05: blood glucose curves and AUC (0 to 120 minutes)
Description: Genetically engineered hGLP1R mice, male, purchased from Biocytogen Jiangsu Gene Biotechnology Co., Ltd., were fasted overnight before the glucose tolerance test (IPTGG), without water deprivation. A solvent or corresponding compound was orally administered once, a glucose solution (2 g/kg) was intraperitoneally injected 60 minutes after administration, and a blood glucose value before administration of glucose (equivalent to a blood glucose value of 0 minute) and blood glucose values 15 minutes, 30 minutes, 60 minutes and 120 minutes after administration of glucose were measured. The solvent was 5% DMSO+40% PEG400+55% physiological saline, and a dosage of the compound was 1 mg/kg (n=3).

SMILES | pEC50 (GLP1R) | activity compared with comparative example compounds PF-06882961, DB02, DB03 and DB06 (GLP1R) | also measured
O=C(O)c1ccc2nc(CC3CCN(c4cccc(OCc5ccc(Cl)c6ccoc56)n4)CC3)n(C[C@@H]3CCO3)c2c1 [Compound 1] | 6.94 | – | –
O=C(O)c1ccc2nc(CC3=CCN(c4cccc(OCc5ccc(Cl)c6ccoc56)n4)CC3)n(C[C@@H]3CCO3)c2c1 [Compound 2] | 6.99 | – | –
N#Cc1ccc(COc2cccc(N3CCC(Cc4nc5ccc(C(=O)O)cc5n4C[C@@H]4CCO4)CC3)n2)c2occc12 [Compound 3] | 7.19 | – | –
O=C(O)c1ccc2nc(CC3CC=C(c4cccc(OCc5ccc(Cl)c6ccoc56)n4)CC3)n(C[C@@H]3CCO3)c2c1 (stereo partly drawn) [Compound 7] | 7.68 | – | IC50 (hERG potassium channel): > 30 µM
O=C(O)c1ccc2nc(CN3CC=C(c4cccc(OCc5cccc6c5oc5ccccc56)n4)CC3)n(C[C@@H]3CCO3)c2c1 [Compound 13] | 7.87 | higher | –
O=C(O)c1ccc2nc(CC3CC=C(c4cccc(OCc5cccc6c5oc5ccccc56)n4)CC3)n(C[C@@H]3CCO3)c2c1 (stereo partly drawn) [Compound 15] | 7.59 | – | –
N#Cc1ccc(COc2cccc(-c3ccc(Cc4nc5ccc(C(=O)O)cc5n4C[C@@H]4CCO4)c(F)c3)n2)c2occc12 [Compound 19] | 8.49 | higher | onset of blood glucose reduction compared with comparative example compound DB05 (hGLP1R mice): took effect more quickly; blood glucose reduction effect compared with PF-06882961 (hGLP1R mice): significantly better; blood glucose reduction effect compared with comparative example compound DB05 (hGLP1R mice): significantly better
O=C(O)c1ccc2nc(Cc3cc(F)c(-c4cccc(OCc5ccc(Cl)c6ccoc56)n4)cc3F)n(C[C@@H]3CCO3)c2c1 [Compound 25] | 7.94 | higher | –
O=C(O)c1ccc2nc(Cc3ccc(-c4cccc(OCc5ccc(Cl)c6ccoc56)n4)cc3F)n(C[C@@H]3CCO3)c2n1 [Compound 38] | 8.12 | higher | onset of blood glucose reduction compared with comparative example compound DB05 (hGLP1R mice): took effect more quickly; blood glucose reduction effect compared with PF-06882961 (hGLP1R mice): significantly better; blood glucose reduction effect compared with comparative example compound DB05 (hGLP1R mice): significantly better
O=C(O)c1ccc2nc(Cc3ccc(-c4cccc(OCc5cccc6c5oc5ccccc56)n4)cc3F)n(C[C@@H]3CCO3)c2c1 [Compound 61] | – | – | onset of blood glucose reduction compared with comparative example compound DB05 (hGLP1R mice): took effect more quickly; blood glucose reduction effect compared with PF-06882961 (hGLP1R mice): significantly better; blood glucose reduction effect compared with comparative example compound DB05 (hGLP1R mice): significantly better
O=C(O)c1ccc2nc(Cc3ccc(-c4cccc(OCc5ccc(F)c6ccoc56)n4)cc3F)n(C[C@@H]3CCO3)c2c1 [Compound 87] | – | – | IC50 (hERG potassium channel): > 30 µM
O=C(O)c1ccc2nc(Cc3ccc(-c4cccc(OCc5ccc(Cl)c6cc(F)oc56)n4)cc3F)n(C[C@@H]3CCO3)c2c1F [Compound 92] | 8.75 | higher | –
O=C(O)c1ccc2nc(Cc3ccc(-c4nc(OCc5ccc(Cl)c6ccoc56)ccc4F)cc3F)n(C[C@@H]3CCO3)c2c1 [Compound 95] | 8.63 | higher | –
O=C(O)c1ccc2nc(Cc3ccc(-c4nc(OCc5ccc(Cl)c6ccoc56)c(F)cc4F)cc3F)n(C[C@@H]3CCO3)c2c1 [Compound 96] | 8.52 | higher | –
Cc1cc2c(Cl)ccc(COc3cccc(-c4ccc(Cc5nc6ccc(C(=O)O)cc6n5C[C@@H]5CCO5)c(F)c4)n3)c2o1 [Compound 102] | 8.04 | higher | –
O=C(O)c1ccc2nc(Cc3ccc(-c4ccc(F)c(OCc5ccc(F)c6cc(Cl)oc56)n4)cc3F)n(C[C@@H]3CCO3)c2c1 [Compound 104] | 8.75 | higher | IC50 (hERG potassium channel): > 30 µM
O=C(O)c1cc(F)c2nc(Cc3ccc(-c4cccc(OCc5ccc(Cl)c6ccoc56)n4)cc3F)n(C[C@@H]3CCO3)c2c1 [Compound 105] | 8.96 | higher | –
O=C(O)c1ccc2nc(CC3CC=C(c4ccc(F)c(OCc5ccc(Cl)c6ccoc56)n4)CC3)n(C[C@@H]3CCO3)c2c1 (stereo partly drawn) [Compound 106] | 8.23 | higher | blood glucose reduction effect compared with PF-06882961 (hGLP1R mice): significantly better
O=C(O)c1ccc2nc(CN3CC=C(c4cccc(OCc5ccc(Cl)c6ccoc56)n4)CC3)n(C[C@@H]3CCO3)c2c1 [DB02, reference compound] | 7.87 | – | –
COCCn1c(Cc2ccc(-c3cccc(OCc4ccc(C#N)c5ccoc45)n3)cc2F)nc2ccc(C(=O)O)cc21 [DB04, reference compound] | 6.56 | – | –

Further lines, with some results ahead:

pEC50 (GLP1R) | activity compared with comparative example compounds PF-06882961, DB02, DB03 and DB06 (GLP1R) | SMILES | also measured
8.17 | higher | O=C(O)c1ccc2nc(CN3CC=C(c4cccc(OCc5cccc6c5oc5ccccc56)n4)CC3)n(C[C@@H]3CCO3)c2n1 [Compound 14] | –
8.71 | higher | N#Cc1ccc(COc2cccc(-c3ccc(Cc4nc5ccc(C(=O)O)nc5n4C[C@@H]4CCO4)c(F)c3)n2)c2occc12 [Compound 67] | –
9.12 | higher | O=C(O)c1ccc2nc(Cc3ccc(-c4cccc(OCc5ccc(Cl)c6ccoc56)n4)cc3F)n(C[C@@H]3CCO3)c2c1F [Compound 91] | –
8.12 | higher | O=C(O)c1ccc2nc(Cc3ccc(-c4ccc(F)c(OCc5cccc6c5oc5ccccc56)n4)cc3F)n(C[C@@H]3CCO3)c2c1 [Compound 97] | –
9.16 | higher | O=C(O)c1ccc2nc(Cc3c(F)cc(-c4cccc(OCc5ccc(Cl)c6ccoc56)n4)cc3F)n(C[C@@H]3CCO3)c2c1 [Compound 101] | –
8.93 | higher | O=C(O)c1ccc2nc(Cc3ccc(-c4ccc(F)c(OCc5ccc(F)c6ccoc56)n4)cc3F)n(C[C@@H]3CCO3)c2c1 [Compound 103] | –
8.72 | higher | O=C(O)c1ccc2nc(CC3CC=C(c4ccc(F)c(OCc5ccc(Cl)c6cc(Cl)oc56)n4)CC3)n(C[C@@H]3CCO3)c2c1 (stereo partly drawn) [Compound 107] | blood glucose reduction effect compared with PF-06882961 (hGLP1R mice): significantly better
8.51 | higher | O=C(O)c1ccc2nc(CC3CC=C(c4cccc(OCc5ccc(Cl)c6cc(Cl)oc56)n4)CC3)n(C[C@@H]3CCO3)c2c1 (stereo partly drawn) [Compound 108] | –
6.51 | – | COCCn1c(Cc2ccc(-c3cccc(OCc4ccc(Cl)c5ccoc45)n3)cc2F)nc2ccc(C(=O)O)cc21 [DB05, reference compound] | –
